From the NIST ThermoML archive (doi:10.1016/j.jct.2015.01.005)
Several values for one entry are separate records, joined by “and”; a condition that tells them apart may be missing. Equal entries are not always repeated.

Assays:
[1] = molar heat capacity at constant pressure; details: 101.33 kPa, Crystal 2, Small (less than 1 g) adiabatic calorimetry
[2] = Molar enthalpy of transition or fusion; details: DSC
[3] = for molar entropy: 101.33 kPa, Small (less than 1 g) adiabatic calorimetry; for vapor or sublimation pressure: Calculated from knudsen effusion weight loss; for Triple point temperature: DTA

O[C@@H]1[C@@H](O)[C@@H]2OC[C@@H](O2)[C@H]1O [1,6-anhydro-β-D-glucopyranose]
Details | Molar enthalpy of transition or fusion [kcal/mol] | Triple point temperature [K] | molar heat capacity at constant pressure [J/K/mol]
[1], 5 K | – | – | 0.138
[1], 10 K | – | – | 1.118
[1], 15 K | – | – | 3.898
[1], 20 K | – | – | 7.99
[1], 25 K | – | – | 12.65
[1], 30 K | – | – | 17.41
[1], 35 K | – | – | 22.01
[1], 40 K | – | – | 26.36
[1], 45 K | – | – | 30.52
[1], 50 K | – | – | 34.47
[1], 60 K | – | – | 41.86
[1], 70 K | – | – | 48.71
[1], 80 K | – | – | 55.17
[1], 90 K | – | – | 61.41
[1], 100 K | – | – | 67.71
[1], 110 K | – | – | 74.28
[1], 120 K | – | – | 79.92
[1], 130 K | – | – | 85.48
[1], 140 K | – | – | 91.03
[1], 150 K | – | – | 96.6
[1], 160 K | – | – | 102.2
[1], 170 K | – | – | 107.8
[1], 180 K | – | – | 113.5
[1], 190 K | – | – | 119.2
[1], 200 K | – | – | 125
[1], 210 K | – | – | 130.9
[1], 220 K | – | – | 136.9
[1], 230 K | – | – | 143
[1], 240 K | – | – | 149.2
[1], 250 K | – | – | 155.5
[1], 260 K | – | – | 162
[1], 270 K | – | – | 168.5
[1], 280 K | – | – | 175.1
[1], 290 K | – | – | 181.7
[1], 298.15 K | – | – | 187.2
[1], 300 K | – | – | 188.5
[1], 310 K | – | – | 195.5
[1], 320 K | – | – | 202.7
[1], 330 K | – | – | 210.3
[1], 340 K | – | – | 218.6
[1], 350 K | – | – | 227.1
[1], 360 K | – | – | 235.5
[1], 370 K | – | – | 244
[1], 380 K | – | – | 252.5
[1], 384 K | – | – | 255.9
[2], Crystal 1 | 0.693 | – | –
[2], Crystal 2 | 5.98 | – | –
[3], Crystal 1 | – | 454 | –
[3], Crystal 2 | – | 384 | –

[3]
Details | molar entropy [J/K/mol] | vapor or sublimation pressure
5 K, Crystal 2 | 0.145 | –
10 K, Crystal 2 | 0.302 | –
15 K, Crystal 2 | 1.222 | –
20 K, Crystal 2 | 2.884 | –
25 K, Crystal 2 | 5.162 | –
30 K, Crystal 2 | 7.89 | –
35 K, Crystal 2 | 10.92 | –
40 K, Crystal 2 | 14.15 | –
45 K, Crystal 2 | 17.49 | –
50 K, Crystal 2 | 20.92 | –
60 K, Crystal 2 | 27.86 | –
70 K, Crystal 2 | 34.84 | –
80 K, Crystal 2 | 41.77 | –
90 K, Crystal 2 | 48.63 | –
100 K, Crystal 2 | 55.42 | –
110 K, Crystal 2 | 62.19 | –
120 K, Crystal 2 | 68.89 | –
130 K, Crystal 2 | 75.51 | –
140 K, Crystal 2 | 82.05 | –
150 K, Crystal 2 | 88.52 | –
160 K, Crystal 2 | 94.93 | –
170 K, Crystal 2 | 101.3 | –
180 K, Crystal 2 | 107.6 | –
190 K, Crystal 2 | 113.9 | –
200 K, Crystal 2 | 120.2 | –
210 K, Crystal 2 | 126.4 | –
220 K, Crystal 2 | 132.6 | –
230 K, Crystal 2 | 138.9 | –
240 K, Crystal 2 | 145.1 | –
250 K, Crystal 2 | 151.3 | –
260 K, Crystal 2 | 157.5 | –
270 K, Crystal 2 | 163.7 | –
280 K, Crystal 2 | 170 | –
290 K, Crystal 2 | 176.3 | –
298.15 K, Crystal 2 | 181.4 | –
300 K, Crystal 2 | 182.5 | –
310 K, Crystal 2 | 188.8 | –
320 K, Crystal 2 | 195.1 | –
330 K, Crystal 2 | 201.5 | –
340 K, Crystal 2 | 207.9 | –
350 K, Crystal 2 | 214.4 | –
353.55 K, Crystal 2 | – | 2.63e-05 kPa
353.56 K, Crystal 2 | – | 2.36e-05 kPa
358.59 K, Crystal 2 | – | 4.61e-05 kPa
360 K, Crystal 2 | 220.9 | –
363.6 K, Crystal 2 | – | 8.11e-05 kPa
368.61 K, Crystal 2 | – | 0.00014 kPa
368.62 K, Crystal 2 | – | 0.000141 kPa and 0.00014 kPa
370 K, Crystal 2 | 227.4 | –
373.63 K, Crystal 2 | – | 0.000248 kPa and 0.000254 kPa
373.64 K, Crystal 2 | – | 0.000243 kPa
378.63 K, Crystal 2 | – | 0.00041 kPa
378.64 K, Crystal 2 | – | 0.000426 kPa
378.65 K, Crystal 2 | – | 0.000416 kPa
380 K, Crystal 2 | 234.1 | –
383.65 K, Crystal 2 | – | 0.000688 kPa and 0.000723 kPa
383.66 K, Crystal 2 | – | 0.000727 kPa and 0.000742 kPa
384 K, Crystal 1 | 301.8 | –
384 K, Crystal 2 | 236.7 | –
